Test results from US8207176B2 (Glaxo Group Limited, priority 2005, dated 2012).
Where a name gives a salt, the structure may show the parent alone.

Each compound was assayed on influx of neutrophils to the lung in LPS-challenged rats (assay: Rat LPS neutrophilia model). Settings: intratracheal, LPS aerosol 100 ug/ml 15 min, lavage 4 hours later, in at least one of the range of conditions tested, significant p<0.05, nonsignificant p>0.05.
Format: in vivo
Protocol: The effect of compounds on the influx of neutrophils to the lung in LPS-challenged rats is evaluated as follows. The test compound is suspended in one of the following solutions: 0.5% tween 80/PBS, 0.5% tween 80/saline, 10% EtOH/saline (with pH adjusted to 2.0, or 8.0 with HCl, or unadjusted), Saline @ pH 2.0, 6.5 or 8.0, 0.5% Tragacanth, 1% DMSO/20% Encapsin/Saline, or acidified 5% Tragacanth. The suspension process may be aided by the use of a glass homogenizer. For intratracheal administration, the animals are anesthetized with inhaled isoflurane and placed in a supine position, the trachea is intubated with a steel gavage needle (1.5 inch, 22 gauge, small ball) or a Penn-Century Microsprayer Aerosolizer (model IA-IB) and 200 ul of dosing solution is delivered. The animals are visually monitored during the recovery process, which typically occurs within two minutes. It is noted that the test compounds may be alternatively administered via the microsprayer in a dry powder blend with a suitable excipient, such as lactose.
Rats treated with compound or vehicle (15 min-24 hours pretreatment) are exposed to an LPS aerosol (100 ug/ml) for 15 min. Four hours later the rats are euthanized with pentobarbital (100 mg/kg, i.p.) and the airways are lavaged with 5 washes of 5 ml of phosphate buffered saline. The harvested cells are stained (Diffquick) and counted to determine total and differential cell data. […] Inhibition of neutrophil levels relative to no compound controls is calculated based on the differential counts.
The data is obtained as % inhibition using a particular concentration and pretreat time.

Structure (SMILES)	inhibition of neutrophilia (neutrophil levels in lung lavage relative to no compound controls)
Cc1ccc(C(=O)Nc2nccs2)cc1-c1nc(NCCNC(C)C)nc2c1ccc(=O)n2-c1c(F)cccc1F [Example 103, 3-[8-(2,6-difluorophenyl)-2-({2-[(1-methylethyl)amino]ethyl}amino)-7-oxo-7,8-dihydropyrido[2,3-d]pyrimidin-4-yl]-4-methyl-N-1,3-thiazol-2-ylbenzamide]	statistically significant inhibition
CCCNC(=O)c1ccc(C)c(-c2nc(N3CCC(N4CCC(C)CC4)CC3)nc3c2ccc(=O)n3-c2c(F)cccc2F)c1 [Example 166, 3-[8-(2,6-difluorophenyl)-2-(4-methyl-1,4′-bipiperidin-1′-yl)-7-oxo-7,8-dihydropyrido[2,3-d]pyrimidin-4-yl]-4-methyl-N-propylbenzamide]	statistically significant inhibition
Cc1ccc(C(=O)NC2CC2)cc1-c1nc(NCc2ncc[nH]2)nc2c1ccc(=O)n2-c1c(F)cccc1F [Example 23, N-cyclopropyl-3-{8-(2,6-difluorophenyl)-2-[(1H-imidazol-2-ylmethyl)amino]-7-oxo-7,8-dihydropyrido[2,3-d]pyrimidin-4-yl}-4-methylbenzamide]	statistically nonsignificant inhibition
CCN(CC)CCCNc1nc(-c2cc(C(=O)NC3CCC3)ccc2C)c2ccc(=O)n(-c3c(F)cccc3F)c2n1 [Example 137, N-cyclobutyl-3-[2-{[3-(diethylamino)propyl]amino}-8-(2,6-difluorophenyl)-7-oxo-7,8-dihydropyrido[2,3-d]pyrimidin-4-yl]-4-methylbenzamide trifluoroacetate]	statistically significant inhibition
Cc1ccc(C(=O)NC(C)C)cc1-c1nc(N2CCC(N)CC2)nc2c1ccc(=O)n2-c1c(F)cccc1F [Example 68, 3-[2-(4-amino-1-piperidinyl)-8-(2,6-difluorophenyl)-7-oxo-7,8-dihydropyrido[2,3-d]pyrimidin-4-yl]-4-methyl-N-(1-methylethyl)benzamide]	statistically significant inhibition
CNCCNc1nc(-c2cc(C(=O)NCCc3ccccc3)ccc2C)c2ccc(=O)n(-c3c(F)cccc3F)c2n1 [Example 29, 3-(8-(2,6-difluorophenyl)-2-{[2-(methylamino)ethyl]amino}-7-oxo-7,8-dihydropyrido[2,3-d]pyrimidin-4-yl)-4-methyl-N-(2-phenylethyl)benzamide]	statistically significant inhibition
Cc1ccc(C(=O)Nc2nccs2)cc1-c1nc(N(C)CCCN(C)C)nc2c1ccc(=O)n2-c1c(F)cccc1F [Example 107, 3-{8-(2,6-difluorophenyl)-2-[[3-(dimethylamino)propyl](methyl)amino]-7-oxo-7,8-dihydropyrido[2,3-d]pyrimidin-4-yl}-4-methyl-N-1,3-thiazol-2-ylbenzamide]	statistically significant inhibition
CCN(CC)CCCNc1nc(-c2cc(C(=O)Nc3ccccc3)ccc2C)c2ccc(=O)n(-c3c(F)cccc3F)c2n1 [Example 147, 3-[2-{[3-(diethylamino)propyl]amino}-8-(2,6-difluorophenyl)-7-oxo-7,8-dihydropyrido[2,3-d]pyrimidin-4-yl]-4-methyl-N-phenylbenzamide]	statistically nonsignificant inhibition
CCN(CC)CCCNc1nc(-c2cc(C(=O)NC)ccc2C)c2ccc(=O)n(-c3c(F)cccc3F)c2n1 [Example 119, 3-[2-{[3-(diethylamino)propyl]amino}-8-(2,6-difluorophenyl)-7-oxo-7,8-dihydropyrido[2,3-d]pyrimidin-4-yl]-N,4-dimethylbenzamide]	statistically significant inhibition
Cc1ccc(C(=O)NCc2ccccc2)cc1-c1nc(N2CCC(N)CC2)nc2c1ccc(=O)n2-c1c(F)cccc1F [Example 71, 3-[2-(4-amino-1-piperidinyl)-8-(2,6-difluorophenyl)-7-oxo-7,8-dihydropyrido[2,3-d]pyrimidin-4-yl]-4-methyl-N-(phenylmethyl)benzamide]	statistically nonsignificant inhibition
Cc1ccc(C(=O)NC2CCCC2)cc1-c1nc(NCc2ncc[nH]2)nc2c1ccc(=O)n2-c1c(F)cccc1F [Example 76, N-cyclopentyl-3-{8-(2,6-difluorophenyl)-2-[(1H-imidazol-2-ylmethyl)amino]-7-oxo-7,8-dihydropyrido[2,3-d]pyrimidin-4-yl}-4-methylbenzamide]	statistically nonsignificant inhibition
CNCCNc1nc(-c2cc(C(=O)NC3CCCC3)ccc2C)c2ccc(=O)n(-c3c(F)cccc3F)c2n1 [Example 58, N-cyclopentyl-3-(8-(2,6-difluorophenyl)-2-{[2-(methylamino)ethyl]amino}-7-oxo-7,8-dihydropyrido[2,3-d]pyrimidin-4-yl)-4-methylbenzamide]	statistically significant inhibition
Cc1ccc(NC(=O)c2cccc3cc[nH]c23)cc1-c1nc(NC(CO)CO)nc2c1ccc(=O)n2-c1c(F)cccc1F [Example 44, N-[3-(8-(2,6-difluorophenyl)-2-{[2-hydroxy-1-(hydroxymethyl)ethyl]amino}-7-oxo-7,8-dihydropyrido[2,3-d]pyrimidin-4-yl)-4-methylphenyl]-1H-indole-7-carboxamide trifluoroacetate]	statistically significant inhibition
Cc1ccc(C(=O)NC2CCC2)cc1-c1nc(N2CCC(N3CCC(C)CC3)CC2)nc2c1ccc(=O)n2-c1c(F)cccc1F [Example 175, N-cyclobutyl-3-[8-(2,6-difluorophenyl)-2-(4-methyl-1,4′-bipiperidin-1′-yl)-7-oxo-7,8-dihydropyrido[2,3-d]pyrimidin-4-yl]-4-methylbenzamide]	inactive
Cc1ccc(C(=O)Nc2nccs2)cc1-c1nc(NC2CC(C)(C)NC(C)(C)C2)nc2c1ccc(=O)n2-c1c(F)cccc1F [Example 67, 3-{8-(2,6-difluorophenyl)-7-oxo-2-[(2,2,6,6-tetramethyl-4-piperidinyl)amino]-7,8-dihydropyrido[2,3-d]pyrimidin-4-yl}-4-methyl-N-1,3-thiazol-2-ylbenzamide]	statistically nonsignificant inhibition
CCCNC(=O)c1cc(F)c(C)c(-c2nc(NCCCN(CC)CC)nc3c2ccc(=O)n3-c2c(F)cccc2F)c1 [Example 181, 3-[2-{[3-(diethylamino)propyl]amino}-8-(2,6-difluorophenyl)-7-oxo-7,8-dihydropyrido[2,3-d]-pyrimidin-4-yl]-5-fluoro-4-methyl-N-propylbenzamide]	statistically nonsignificant inhibition
CCN(CC)CCCNc1nc(-c2cc(C(=O)NCCOC)ccc2C)c2ccc(=O)n(-c3c(F)cccc3F)c2n1 [Example 134, 3-[2-{[3-(diethylamino)propyl]amino-}8(2,6-difluorophenyl)-7-oxo-7,8-dihydropyrido[2,3-d]pyrimidin-4-yl]-4-methyl-N-[2-(methyloxy)ethyl]benzamidetrifluoroacetate]	statistically nonsignificant inhibition
